Test results as given in the NIST ThermoML archive (doi:10.1016/j.fluid.2010.05.009).
± gives the expanded uncertainty stated by the source.

Experiments:
[1] = 298.15 K; 101.33 kPa; Liquid; Vibrating tube method
[2] = refractive index (Na D-line) (dimensionless); details: 298.15 K; 101.33 kPa; Liquid; Standard Abbe refractometry

mass density [1]: 1219.61 ± 0.41 kg/m3 | refractive index [2]: 1.50591 ± 0.00038
Compound: CCOS(=O)(=O)[O-].CC[n+]1cccc(C)c1 [1-ethyl-3-methylpyridinium ethylsulfate]
